Experimental data as given in ChEMBL document CHEMBL1201862, “PubChem BioAssay data set” (2004).
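Tested at 5 concentrations; 48 h exposure; 96-well plates; endpoints linearly interpolated, else capped at highest concentration. The concentration for 50% growth inhibition is given as GI50.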 Calls of active or inactive are those of the source. Rule as the data show it: active = GI50 up to about 1.1 µM and inactive = higher.

Key:
Assay in all cases: growth of human tumour cells (NCI), 48 h
UACC-257 = test system: UACC-257
SF-539 = test system: SF-539
MOLT-4 = test system: MOLT-4
SK-MEL-2 = test system: SK-MEL-2
OVCAR-8 = test system: OVCAR-8
SN12C = test system: SN12C
A549 = test system: A549
SF-268 = test system: SF-268
NCI-H226 = test system: NCI-H226
DLD-1 = test system: DLD-1
NCI-H522 = test system: NCI-H522
HCT-15 = test system: HCT-15
EKVX = test system: EKVX
K562 = test system: K562
NCI-H460 = test system: NCI-H460
SNB-19 = test system: SNB-19
OVCAR-4 = test system: OVCAR-4
CCRF-CEM = test system: CCRF-CEM
HOP-18 = test system: HOP-18
OVCAR-3 = test system: OVCAR-3
A498 = test system: A498
NCI-H23 = test system: NCI-H23
UACC-62 = test system: UACC-62
RPMI-8226 = test system: RPMI-8226
SW-620 = test system: SW-620
OVCAR-5 = test system: OVCAR-5
DMS-114 = test system: DMS-114
HOP-92 = test system: HOP-92
IGROV-1 = test system: IGROV-1
HCT-116 = test system: HCT-116
SK-OV-3 = test system: SK-OV-3
CAKI-1 = test system: CAKI-1
HOP-62 = test system: HOP-62
M19-MEL = test system: M19-MEL
U-251 = test system: U-251
HT-29 = test system: HT-29
SK-MEL-28 = test system: SK-MEL-28
KM-20L2 = test system: KM-20L2
RXF 393 = test system: RXF 393
SNB-78 = test system: SNB-78
HCC 2998 = test system: HCC 2998
Malme-3M = test system: Malme-3M
SK-MEL-5 = test system: SK-MEL-5
SNB-75 = test system: SNB-75
UO-31 = test system: UO-31
LOX IMVI = test system: LOX IMVI
KM12 = test system: KM12
XF498 = test system: XF498
COLO 205 = test system: COLO 205
DMS-273 = test system: DMS-273
HL-60 = test system: HL-60
MCF7 = test system: MCF7
SF-295 = test system: SF-295
NCI/ADR-RES = test system: NCI/ADR-RES
LXFL 529 = test system: LXFL 529
SR = test system: SR
TK-10 = test system: TK-10
M14 = test system: M14
786-0 = test system: 786-0
ACHN = test system: ACHN

Measured: GI50

NCC(Cl)C(O)c1c[nH]c(N)n1 (centres undefined)
inactive: UACC-257 3050 nM | SK-MEL-2 3560 nM | SN12C 2120 nM | SF-268 1380 nM | NCI-H226 2150 nM | DLD-1 1840 nM | NCI-H522 1930 nM | K562 2380 nM | NCI-H460 2140 nM | SNB-19 1160 nM | CCRF-CEM 1580 nM | OVCAR-3 2030 nM | NCI-H23 1490 nM | UACC-62 3010 nM | OVCAR-5 2010 nM | DMS-114 1540 nM | HOP-92 5460 nM | M19-MEL 2520 nM | SK-MEL-28 3610 nM | RXF 393 1190 nM | SNB-78 9790 nM | Malme-3M 1430 nM | SK-MEL-5 7330 nM | SNB-75 1840 nM | LOX IMVI 1240 nM | XF498 2450 nM | DMS-273 2050 nM | HL-60 3460 nM | MCF7 2770 nM | SF-295 4310 nM
3480 nM: HCT-15
active: SF-539 473 nM | MOLT-4 530 nM | OVCAR-8 546 nM | A549 136 nM | EKVX 502 nM | OVCAR-4 668 nM | HOP-18 275 nM | A498 147 nM | RPMI-8226 237 nM | SW-620 370 nM | IGROV-1 245 nM | HCT-116 392 nM | SK-OV-3 533 nM | CAKI-1 269 nM | HOP-62 371 nM | U-251 1030 nM | HT-29 454 nM | KM-20L2 596 nM | HCC 2998 625 nM | UO-31 822 nM | KM12 117 nM | COLO 205 306 nM | NCI/ADR-RES 596 nM

c1ccc2c(CNCCCCCCCCCCCCNCc3cccc4ccccc34)cccc2c1
active: K562 467 nM | SR 1110 nM | RPMI-8226 1040 nM
1660 nM: HCT-15
inactive: UACC-257 1780 nM | SF-539 1580 nM | MOLT-4 1220 nM | SK-MEL-2 1590 nM | OVCAR-8 1630 nM | SN12C 3530 nM | A549 1850 nM | LXFL 529 1830 nM | SF-268 2220 nM | NCI-H226 2390 nM | DLD-1 1600 nM | NCI-H522 1880 nM | EKVX 3100 nM | NCI-H460 1530 nM | OVCAR-4 1580 nM | CCRF-CEM 1260 nM | HOP-18 2840 nM | OVCAR-3 1850 nM | A498 6080 nM | NCI-H23 1510 nM | TK-10 2140 nM | UACC-62 1820 nM | SW-620 1790 nM | OVCAR-5 1540 nM | HOP-92 1880 nM | IGROV-1 1840 nM | HCT-116 1610 nM | SK-OV-3 13300 nM | CAKI-1 1920 nM | HOP-62 2140 nM | M19-MEL 1810 nM | U-251 1770 nM | HT-29 1640 nM | SK-MEL-28 1950 nM | M14 1850 nM | KM-20L2 1840 nM | RXF 393 1360 nM | SNB-78 1900 nM | Malme-3M 2210 nM | SK-MEL-5 1830 nM | SNB-75 1790 nM | UO-31 1640 nM | LOX IMVI 1220 nM | KM12 1610 nM | XF498 1690 nM | COLO 205 > 100000 nM | 786-0 1810 nM | DMS-273 91800 nM | HL-60 1470 nM | ACHN 1910 nM | SF-295 19500 nM
